The values below come from patent US5484717A, “Antibiotic 31F508α1, 31F508α2, 31F508β1, 31F508β2” (American Cyanamid Company, priority 1995, dated 1996).

One assay relates to CNS (ID-3276). The assay can be described thus: In vitro antibacterial activity, agar dilution MIC. Particulars: 18 h, read-out: Minimum Inhibitory Concentration, CNS (ID-3276), without sheep blood. In kind it is cell-based. The procedure:
(§1) The in vitro antibacterial activity of 31F508α1 and α2 is determined against a spectrum of gram-positive and gram-negative bacteria by a standard agar dilution method. Mueller-Hinton agar with and without 5% sheep blood and two-fold decreasing concentrations of either 31F508α1 or α2 are poured into petri dishes. The agar surfaces are inoculated with 1 to 5×10^4 colony forming units of bacteria by means of the Steers replicating device. The lowest concentration of antibiotic that inhibits growth of a bacterial strain after 18 hours incubation is recorded as the minimal inhibitory concentration for that strain. The results are given in Table V with sheeps blood added to the agar.
On the technique in general: Agar dilution tests growth on a series of plates holding different concentrations.

The test system of a further assay is E. faecalis (ATCC 29212). As to the kind of experiment: In vitro antibacterial activity, agar dilution MIC. It is filed as cell-based. The following applies: Enterococcus faecalis, ATCC29212, 18 h, read-out: Minimum Inhibitory Concentration. The protocol:
as §1

A further assay relates to E. faecalis (ID-2131). The assay can be described thus: In vitro antibacterial activity, agar dilution MIC. In kind it is cell-based. The following applies: Enterococcus faecalis, 18 h, read-out: Minimum Inhibitory Concentration. The protocol:
as §1

For another assay, the system named is E. faecium (12202). As to the kind of experiment: In vitro antibacterial activity, agar dilution MIC. In kind it is cell-based. Particulars: Enterococcus faecium, 18 h, read-out: Minimum Inhibitory Concentration. The protocol: as §1
A further assay relates to E. faecium (ID-3301). The assay can be described thus: In vitro antibacterial activity, agar dilution MIC. It is filed as cell-based. Particulars: Enterococcus faecium, 18 h, read-out: Minimum Inhibitory Concentration. The procedure: as §1
The subject of a further assay is S. agalactiae (ID-4079). The assay can be described thus: In vitro antibacterial activity, agar dilution MIC. In kind it is cell-based. Particulars: Streptococcus agalactiae. The procedure: as §1
Assay [1] concerns Staphylococcus aureus (MEMC-89-4). The assay can be described thus: In vitro antibacterial activity, agar dilution MIC. It is filed as cell-based. The following applies: 18 h, read-out: Minimum Inhibitory Concentration. The procedure: as §1
Assay [2] relates to Staphylococcus aureus (SMITH). The assay can be described thus: In vitro antibacterial activity, agar dilution MIC. It is filed as cell-based. The following applies: 18 h, read-out: Minimum Inhibitory Concentration. The protocol: as §1
The subject of the next assay is Escherichia coli#311. The assay can be described thus: In vivo antibacterial activity in intraperitoneally infected mice. On the set-up: species or system female CD-1 mice. Particulars: one half hour after infection. The procedure: The in vivo antibacterial activity of antibiotic 31F508α2 is established by infecting female CD-1 mice from Charles River Laboratories,weighing 20+-- 2 g each, intraperitoneally of sufficient bacterial cells suspended in either broth or 5% hog gastric mucin to kill non-treated controls within 24-48 hours. Two-fold serially diluted doses of the antibacterial agent contained in phosphate buffered saline (PBS, pH 7.4, 0.01M) are administered intravenously (0.2 ml) or contained in 0.2% aqueous agar, subcutaneously (0.5 ml) or orally (0.5 ml) one half hour after infection. In each test, five mice are treated per dose level.

[3] abbreviates: 18 h, read-out: Minimum Inhibitory Concentration, S. acralactiae (ID-4079), without sheep blood.

Converted amounts (≈) assume the structure as drawn. Read-outs that look alike come from different tables or passages of the source.

As for `COc1c(C)c(O)c2c(c1O)C1COC3C4CC5C(N4)C(C2N2CCOC52)N13` (stereo not drawn) [31F508α1], the MIC with CNS (ID-3276) was 0.008 µg/mL (≈ 0.0206 µM); in the assay with E. faecalis (ATCC 29212) (with 5% sheep blood), 0.12 µg/mL (≈ 0.31 µM); with E. faecalis (ATCC 29212) (without sheep blood) it was 0.06 µg/mL (≈ 0.155 µM); in the assay on E. faecalis (ID-2131) (with 5% sheep blood), 0.25 µg/mL (≈ 0.645 µM); in the assay with E. faecalis (ID-2131) (without sheep blood) it was 0.12 µg/mL (≈ 0.31 µM); with E. faecium (12202) (with 5% sheep blood) it was 0.25 µg/mL (≈ 0.645 µM). In addition, the MIC with E. faecium (12202) (without sheep blood) came to 0.03 µg/mL (≈ 0.0774 µM); with E. faecium (ID-3301) (with 5% sheep blood) it was 0.12 µg/mL (≈ 0.31 µM); in the assay with E. faecium (ID-3301) (without sheep blood), 0.06 µg/mL (≈ 0.155 µM); with S. agalactiae (ID-4079) (setting [3]), 0.004 µg/mL (≈ 0.0103 µM); in the assay on S. agalactiae (ID-4079) (S. agalactiae (ID-4079), with 5% sheep blood, 18 hours, read-out: Minimum Inhibitory Concentration), 0.015 µg/mL (≈ 0.0387 µM); in assay [1] (with 5% sheep blood) it was 0.06 µg/mL (≈ 0.155 µM). The MIC was determined as 0.03 µg/mL (≈ 0.0774 µM) in assay [1] (without sheep blood), 0.008 µg/mL (≈ 0.0206 µM) in assay [2] (with 5% sheep blood) and 0.004 µg/mL (≈ 0.0103 µM) in [2] (without sheep blood).

For `COc1c(C)c(O)c2c(c1O)C1COC3C4CC5C(C(C2N2CCOC52)N13)N4C` (stereo not drawn) [31F508α2], the MIC stood at 0.06 µg/mL (≈ 0.149 µM) in the assay on E. faecalis (ATCC 29212) (without sheep blood); 0.25 µg/mL (≈ 0.623 µM) in the assay with E. faecalis (ID-2131) (without sheep blood); 0.015 µg/mL (≈ 0.0374 µM) with E. faecium (12202) (without sheep blood); 0.12 µg/mL (≈ 0.299 µM) in the assay on E. faecium (ID-3301) (without sheep blood); 0.004 µg/mL (≈ 0.00996 µM) in the assay with S. agalactiae (ID-4079) (setting [3]); 0.004 µg/mL (≈ 0.00996 µM) in assay [1] (without sheep blood). Also, the MIC in assay [2] (without sheep blood) is 0.002 µg/mL (≈ 0.00498 µM). For the same compound, the “Survival Ratios” value is 0/5 in the assay on Escherichia coli#311 (SIV (intravenous), 0.25 Mg/Kg); 0/5 in the assay on Escherichia coli#311 (SIV (intravenous), 0.5 Mg/Kg); 0/5 in the assay on Escherichia coli#311 (SIV (intravenous), 1 Mg/Kg); 0/5 in the assay on Escherichia coli#311 (SIV (intravenous), 2 Mg/Kg); 0/5 with Escherichia coli#311 (SIV (intravenous), 4 Mg/Kg); 0/5 with Escherichia coli#311 (SOD (oral), 0.25 Mg/Kg). Besides, the “Survival Ratios” value in the assay on Escherichia coli#311 (SOD (oral), 0.5 Mg/Kg) is 0/5; with Escherichia coli#311 (SOD (oral), 1 Mg/Kg), 0/5; in the assay with Escherichia coli#311 (SOD (oral), 2 Mg/Kg), 0/5; in the assay with Escherichia coli#311 (SOD (oral), 4 Mg/Kg), 0/5; in the assay with Escherichia coli#311 (SOD (oral), 8 Mg/Kg), 0/5; in the assay on Escherichia coli#311 (SSC (subcutaneous), 0.25 Mg/Kg), 0/5. The “Survival Ratios” value in the assay on Escherichia coli#311 (SSC (subcutaneous), 0.5 Mg/Kg) is on record as 0/5; in the assay with Escherichia coli#311 (SSC (subcutaneous), 1 Mg/Kg), 0/5; with Escherichia coli#311 (SSC (subcutaneous), 2 Mg/Kg) it was 0/5; with Escherichia coli#311 (SSC (subcutaneous), 4 Mg/Kg), 0/5; in the assay on Escherichia coli#311 (SSC (subcutaneous), 8 Mg/Kg) it was 0/5.
